Laboratory results reported in patent publication US20260151379A1, “SALT TYPE AND CRYSTAL FORM OF COMPLEMENT FACTOR B INHIBITOR, AND PREPARATION METHOD THEREFOR AND APPLICATION THEREOF” (SHANGHAI MEIYUE BIOTECH DEVELOPMENT CO., LTD., priority 2022, published 2026).

What was measured:
[1] = Solubility tests in water, SGF, FaSSIF, FeSSIF at 37° C. (Example 5); format: physicochemical; details: for solubility at 1 h / solubility at 24 h: 37 °C, thermodynamic from solid; for solubility at 1 h: read-out: Solubility (mg/mL) (1 h); for solubility at 24 h: read-out: Solubility (mg/mL) (24 h)
Description: Experimental procedures: 30 mg (in water) or 15 mg of a sample was weighed out and added to a 4 mL vial; 3 mL of a medium to be tested (water, SGF, FaSSIF, or FeSSIF) was added; the mixture was continuously stirred at 37° C.; 0.5 mL of the sample was separately collected at 1 h and 24 h; centrifugation was performed at 12000 rpm for 10 min; the supernatant was diluted with 50% aqueous acetonitrile solution to an appropriate multiple; and the concentration of the supernatant was determined.
Control and linearity: 10 mg of the compound of formula I was weighed out and added to a 50 mL volumetric flask, 50% aqueous acetonitrile solution was added for dissolution, and the mixture was diluted to volume. Two parts were prepared in parallel. The control of the compound of formula I was taken and diluted with 50% aqueous acetonitrile solution to 100 μg/mL, 50 μg/mL, and 10 μg/mL, 5 μL of the sample was injected, and a standard curve was plotted.

[2] = Liver microsomal stability experiment (human); format: in vitro ADME
Description: A 0.1 M solution of dipotassium phosphate in distilled water (containing 1 mM ethylenediaminetetraacetic acid) was taken. Then the pH was adjusted to 7.4 with a 0.1 M solution of potassium dihydrogen phosphate in distilled water (containing 1 mM ethylenediaminetetraacetic acid).
• Rat: SD Rat Liver Microsomes, Cat. No.: LM-DS-02M, RILD Research Institute for Liver Diseases (Shanghai) Co. Ltd. • Monkey: Cynomolgus Monkey Liver Microsomes, Cat. No.: LM-SXH-02M, RILD Research Institute for Liver Diseases (Shanghai) Co. Ltd. • Human: Pooled Human Liver Microsomes (Mongolian), Cat. No.: LM-R-02M, RILD Research Institute for Liver Diseases (Shanghai) Co. Ltd.
A 10 mM solution of each of the control compound and test compounds was prepared in DMSO. Then 10 μL of the solution was added to 190 μL of acetonitrile to form a 0.5 mM stock solution. 1.5 μL of the 0.5 mM stock solution was measured out, and […] of 20 mg/mL liver microsomes and 479.75 μL of the buffer were added. (The actual preparation amount can be adjusted according to use).
10 mg/mL of reduced coenzyme II (NADPH) was prepared in the buffer. A 96-well plate was placed on ice. Wells corresponding to different time points (0, 10, 30, 60 and 90 min, Non-NADPH) were set for each compound. […] The mixture was analyzed on an AB SCIEX ExionLC-Triple Quad 5500 high-performance liquid chromatograph-mass spectrometer. […]

[3] = target: Complement factor B (Homo sapiens, UniProt P00751); assay: Optical surface plasmon resonance (SPR) binding capacity assay
Complement factor B, sequence (P00751 26-764): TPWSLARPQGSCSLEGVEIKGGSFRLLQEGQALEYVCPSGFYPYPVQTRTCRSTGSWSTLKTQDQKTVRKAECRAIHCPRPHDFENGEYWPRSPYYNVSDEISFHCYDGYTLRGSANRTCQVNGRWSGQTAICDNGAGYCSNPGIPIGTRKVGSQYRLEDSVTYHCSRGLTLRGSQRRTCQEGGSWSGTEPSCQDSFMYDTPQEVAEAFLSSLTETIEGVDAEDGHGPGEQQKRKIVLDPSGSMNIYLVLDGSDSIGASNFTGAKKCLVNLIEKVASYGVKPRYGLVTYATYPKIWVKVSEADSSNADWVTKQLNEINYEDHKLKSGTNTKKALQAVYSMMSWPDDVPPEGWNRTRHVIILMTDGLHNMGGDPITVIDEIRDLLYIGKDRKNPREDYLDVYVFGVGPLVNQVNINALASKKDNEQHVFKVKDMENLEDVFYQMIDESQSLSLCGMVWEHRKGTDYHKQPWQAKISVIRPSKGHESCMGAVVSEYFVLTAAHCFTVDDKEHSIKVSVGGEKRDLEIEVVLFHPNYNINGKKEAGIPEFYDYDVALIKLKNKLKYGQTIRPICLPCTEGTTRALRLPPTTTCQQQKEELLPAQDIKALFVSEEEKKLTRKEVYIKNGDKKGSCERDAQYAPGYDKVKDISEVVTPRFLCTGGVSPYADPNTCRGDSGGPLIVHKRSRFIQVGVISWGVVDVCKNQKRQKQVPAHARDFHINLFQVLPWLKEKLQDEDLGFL
Description: An SPR experiment was carried out at 25° C. In the experiment, a PBS buffer supplemented with 0.05% (v/v) P20 and 5% DMSO was used as a running buffer, and the analytical instrument Biacore 8K of GE Healthcare was used. A CM7 chip (GE Healthcare) was activated with 400 mM EDC and 100 mM NHS at a flow rate of 30 μL/min for 420 s. […] Then the assay chip was treated with 1 M ethanolamine hydrochloride at a flow rate of 10 μL/min for 300 s for chip blocking. The concentration of the test compound was 500 μM, the binding time was 120 s, and the dissociation time was 300 s. Data analysis was performed using a 1:1 binding model (Biacore Insight Evaluation Software, Version 2.0.15.12933).

[4] = Solubility tests of compound of formula I, mixture of crystal forms A and B, and crystal form C at 37° C. (Example 13); format: physicochemical; details: 37° C.; for solubility at 1 h / solubility at 24 h: thermodynamic from solid; for solubility at 1 h: read-out: Solubility at 1 h; for solubility at 24 h: read-out: Solubility at 24 h
Description: An appropriate amount of a test sample was weighed out and added to a vial; 3 mL of a medium (water, SGF, FaSSIF, FeSSIF, or the like) was added; the mixture was stirred at 37° C.; […]; centrifugation was performed at 12000 rpm for 10 min; the supernatant was diluted with 50% aqueous acetonitrile solution to an appropriate multiple; and the concentration of the supernatant was determined.
Control and linearity: 10 mg of the compound of formula I was weighed out and added to a 50 mL volumetric flask, 50% aqueous acetonitrile solution was added for dissolution, and the mixture was diluted to volume. Two parts were prepared in parallel. The control was taken and diluted with 50% aqueous acetonitrile solution to 100 μg/mL, 50 μg/mL, and 10 μg/mL, 5 μL of the sample was injected, and a standard curve was plotted.

[5] = SGF, simulated gastric fluid, SGF

Compound: COc1cc(C)c2[nH]ccc2c1CN1CC[C@H](OCC2CC2)C[C@H]1c1ccc(C(=O)O)cc1 [Compound of formula I]
- Final pH ([1]; FaSSIF): 6.44
- Solubility (mg/mL) (1 h) ([1]; FaSSIF): 0.22 mg/mL
- Solubility (mg/mL) (24 h) ([1]; FaSSIF): 0.19 mg/mL
- solubility at 1 h ([1]; FeSSIF, fessif, FeSSIF): 0.37 mg/mL
- solubility at 24 h ([1]; FeSSIF, fessif, FeSSIF): 0.35 mg/mL
- Final pH ([1]; FessIF): 5.03
- Final pH ([1]; SGF): 1.74
- solubility at 1 h [1, 5]: 5.51 mg/mL
- solubility at 24 h [1, 5]: 5.48 mg/mL
- Final pH ([1]; Water): 8.73
- Solubility (mg/mL) (1 h) ([1]; Water): 0.37 mg/mL
- Solubility (mg/mL) (24 h) ([1]; Water): 0.31 mg/mL
- MMS (human) Remaining (T = 90 min) ([2]; human liver microsomes, 90 min): 91.04%
- Liver microsomal stability (in words) ([2]; rat, monkey and human liver microsomes): significant liver microsomal stability
- Rmax (RU) ([3]; test compound 500 μM, 25° C., 1:1 binding model): 274.2 RU
- Binding capacity to the target protein (in words) ([3]; versus control compound): significantly superior to that of the control compound
- Final pH ([4]; FaSSIF): 6.44
- Final pH ([4]; FessIF): 5.03
- Final pH ([4]; SGF): 1.74
- Final pH ([4]; Water): 8.73
- solubility at 1 h ([4]; simulated gastric fluid, SGF): 5510 µg/mL
- solubility at 24 h ([4]; simulated gastric fluid, SGF): 5480 µg/mL
- solubility at 1 h ([4]; FassIF): 220 µg/mL
- solubility at 24 h ([4]; FassIF): 190 µg/mL
- solubility at 1 h ([4]; FessIF): 370 µg/mL
- solubility at 24 h ([4]; FessIF): 350 µg/mL
- solubility at 1 h ([4]; Water): 370 µg/mL
- solubility at 24 h ([4]; Water): 310 µg/mL
